Structures can show the parent of a compound that is named as a salt.
Columns and labels:
hPPARγ1 = molecular target: T1, hPPARγ1 (Homo sapiens, UniProt P37231); test: Determination of hPPARγ activity (GAL4 fusion luciferase reporter in transfected HEK-293 cells); format: cell-based; details: compound concentration 1 μM
T1 construct: expressed in transfected cells; host or cells: HEK-293
T1 sequence (P37231 238-503 limits assumed): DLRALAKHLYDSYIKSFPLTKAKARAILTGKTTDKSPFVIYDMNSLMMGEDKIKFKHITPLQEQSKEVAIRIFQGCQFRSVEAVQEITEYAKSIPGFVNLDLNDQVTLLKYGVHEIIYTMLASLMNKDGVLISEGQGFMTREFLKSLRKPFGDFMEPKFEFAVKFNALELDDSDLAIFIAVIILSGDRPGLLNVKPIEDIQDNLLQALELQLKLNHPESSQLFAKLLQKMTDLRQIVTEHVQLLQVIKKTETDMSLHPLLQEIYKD
Experimental: b) Determination of hPPARγ Activity
Ligand binding domain of hPPARγ1 was fused to DNA binding domain of Yeast transcription factor GAL4 in eucaryotic expression vector. Using lipofectamine (Gibco BRL, USA) as transfecting reagent HEK-293 cells were transfected with this plasmid and a reporter plasmid harboring the luciferase gene driven by a GAL4 specific promoter. Compound was added at 1 μM concentration after 48 hrs of transfection and incubated overnight. Luciferase activity as a function of drug binding/activation capacity of PPARγ1 was measured using Packard Luclite kit (Packard, USA) in Packard Top Count (Ivan Sadowski, Brendan Bell, Peter Broag and Melvyn Hollis. Gene. 1992. 118: 137-141; Guide to Eukaryotic Transfections with Cationic Lipid Reagents. Life Technologies, GIBCO BRL, USA).

hPPARα = molecular target: T2, hPPARα (Homo sapiens, UniProt Q07869); test: Determination of hPPARα activity (GAL4 fusion luciferase reporter in transfected HEK-293 cells); format: cell-based; details: compound concentration 50 μM
T2 construct: expressed in transfected cells; host or cells: HEK-293
T2 sequence (Q07869 239-466 limits assumed): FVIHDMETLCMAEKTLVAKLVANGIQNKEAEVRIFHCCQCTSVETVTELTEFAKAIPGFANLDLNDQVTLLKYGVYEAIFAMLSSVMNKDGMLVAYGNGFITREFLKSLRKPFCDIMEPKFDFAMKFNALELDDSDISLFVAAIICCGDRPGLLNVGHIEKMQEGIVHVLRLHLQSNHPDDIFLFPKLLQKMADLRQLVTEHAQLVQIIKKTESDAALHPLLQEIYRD
Experimental: a) Determination of hPPARα Activity
Ligand binding domain of hPPARα was fused to DNA binding domain of Yeast transcription factor GAL4 in eucaryotic expression vector. Using superfect (Qiagen, Germany) as transfecting reagent HEK-293 cells were transfected with this plasmid and a reporter plasmid harboring the luciferase gene driven by a GAL4 specific promoter. Compound was added at different concentrations after 42 hrs of transfection and incubated overnight. Luciferase activity as a function of compound binding/activation capacity of PPARα was measured using Packard Luclite kit (Packard, USA) in Top Count (Ivan Sadowski, Brendan Bell, Peter Broag and Melvyn Hollis. Gene. 1992. 118: 137-141; Superfect Transfection Reagent Handbook. February 1997. Qiagen, Germany).

Swiss albino mice = test: Plasma triglyceride and total cholesterol lowering activity in Swiss albino mice and Guinea pigs; format: in vivo, mouse; details: dose 0.3 mg/kg, oral, 6 days
Experimental: c) Plasma Triglyceride and Total Cholesterol Lowering Activity in Swiss Albino Mice and Guinea Pigs
Male Swiss albino mice (SAM) and male Guinea pigs were obtained from NIN and housed in DRF animal house. All these animals were maintained under 12 hour light and dark cycle at 25±1° C. Animals were given standard laboratory chow (NIN Hyderabad, India) and water, ad libitum. SAM of 20-25 g body weight range and Guinea pigs of 500-700 g body weight range were used (Oliver, P., Plancke, M. O., Marzin, D., Clavey, V., Sauzieres, J and Fruchart, J. C. Effects of fenofibrate, gemfibrozil and nicotinic acid on plasma lipoprotein levels in normal and hyperlipidemic mice. Atherosclerosis. 1988. 70: 107-114).
The test compounds were administered orally to Swiss albino mice at 0.3 to 30 mg/kg/day dose for 6 days. Control mice were treated with vehicle (0.25% Carboxymethylcellulose; dose 10 ml/kg). The test compounds were administered orally to Guinea pigs at 0.3 to 30 mg/kg/day dose for 6 days. Control animals were treated with vehicle (0.25% Carboxymethylcellulose; dose 5 ml/kg).
The blood samples were collected in fed state 1 hour after drug administration on 0 and 6 day of treatment. The blood was collected from the retro-orbital sinus through heparinised capillary in EDTA containing tubes. After centrifugation, plasma sample was separated for triglyceride and total cholesterol (Wieland, O. Methods of Enzymatic analysis. Bergermeyer, H. O., Ed., 1963. 211-214; Trinder, P. Ann. Clin. Biochem. 1969. 6: 24-27). Measurement of plasma triglyceride, total cholesterol and HDL were done using commercial kits (Dr. Reddy's Diagnostic Division, Hyderabad, India).
(§1) 1. Percent reduction in Blood sugar/triglycerides/total cholesterol were calculated according to the formula: [formula]

C57BL/KsJ-db/db mice = test: Efficacy in genetic models: blood sugar lowering in db/db mice; format: in vivo, mouse; details: 0.1 mg/kg oral gavage daily for 6 days
Excerpt: a) Efficacy in Genetic Models
Mutation in colonies of laboratory animals and different sensitivities to dietary regimens have made the development of animal models with non-insulin dependent diabetes and hyperlipidemia associated with obesity and insulin resistance possible. Genetic models such as db/db and ob/ob (Diabetes, (1982) 31(1): 1-6) mice and zucker fa/fa rats have been developed by the various laboratories for understanding the pathophysiology of disease and testing the efficacy of new antidiabetic compounds (Diabetes, (1983) 32: 830-838; Annu. Rep. Sankyo Res. Lab. (1994). 46: 1-57). […]
The random blood sugar and triglyceride levels were measured by collecting blood (100 μl) through orbital sinus, using heparinised capillary in tubes containing EDTA which was centrifuged to obtain plasma. The plasma glucose and triglyceride levels were measured spectrometrically, by glucose oxidase and glycerol-3-PO4 oxidase/peroxidase enzyme (Dr. Reddy's Lab. Diagnostic Division Kits, Hyderabad, India) methods respectively.
The blood sugar and triglycerides lowering activities of the test compound was calculated according to the formula.
as §1

For `CCO[C@@H](Cc1ccc(OCCn2c(CC)nc3ccccc3c2=O)cc1)C(=O)O` [Example 11, (−)-3-[4-[2-(2-Ethyl-4-oxo-3,4-dihydroquinazolin-3-yl)ethoxy]phenyl]-2-ethoxypropanoic acid arginine salt], the PPARγ (hPPARγ1) was 27.0, the PPARα (hPPARα) was 13.8 and the “Triglyceride Lowering (%)” value (Swiss albino mice) was 58%. For the same compound, the “Reduction in Blood Glucose Level (%)” value (C57BL/KsJ-db/db mice) was 61%.

— patent US20020169175A1, “Pharmaceutically acceptable salts of heterocyclic compounds” (DR. REDDY'S LABORATORIES LTD., priority 2001, published 2002)
